# Source: patent US20220160608A1, “PEPTIDE FOR REDUCING HAIR LOSS AND PROMOTING HAIR GROWTH, AND COSMETIC COMPOSITION AND PHARMACEUTICAL COMPOSITION COMPRISING SAME” (INCOSPHARM CORPORATION, priority 2019, published 2022)
# Key:
# [1] = system: growth hormones VEGF, IGF-I, FGF10; experiment: Western blot for expression of hair-related growth hormone proteins in HFDPCs; assay type: cell-based, human; conditions: 10 or 40 μM respectively, 48 hours
# Method: Specifically, human follicular dermal papilla cells (HFDPCs) were uniformly plated with western blot experimental method at the number of 1×10^5 cells in a 6-well plate and cultured in an incubator in DMEM (Dulbecco's Modified Eagle Media, Gibco BRL) for 24 hours at 37° C. under 5% CO2 conditions. […] Thereafter, 1 ml of each dilution solution was added in each well containing 1 ml of medium, and incubated for 48 hours. After the culture was completed, the medium was removed and the cells were disrupted with SDS sample buffer, followed by separating each protein on SDS-PAGE gel electrophoresis, transferring to a polyvinylidene fluoride (PVDF) membrane, and then removing non-specific binding using a blocking buffer.
# FGF1 and FGF7 = experiment: RT-PCR for FGF1 and FGF7 gene expression in human dermal papilla cells; assay type: cell-based; conditions: 10 or 40 μM
# Excerpt: (§1) After completion of the culture, the cells were disrupted with Trizol (Ambion), total mRNA was collected with chloroform/isopropanol, and cDNA was synthesized with reverse transcriptase.
# MMP-2 and ALP = experiment: RT-PCR for MMP-2 and ALP gene expression in human dermal papilla cells; assay type: cell-based; conditions: compared to the control group
# Method: as §1
# RT-PCR (Thermal Cycler, Bio-rad) was performed using primers specific for MMP-2 and ALP, and the amplified product was analyzed by agarose gel electrophoresis, and the results are shown in (a) of FIG. 6.
# [2] = system: Wnt/β-catenin signaling pathway; conditions: HFDPCs; for expression of p-GSK3β protein / expression of β-catenin protein: Western blot, compared to control group not treated with the peptide; for expression of active β-catenin protein, concentration screening: all concentrations from 0.1 μM to 100 μM (SEQ ID NO: 5) or 50 μM (SEQ ID NO: 10), effect not concentration-dependent
# Method: Human follicular dermal papilla cells (HFDPCs) were uniformly plated at the number of 1×10^5 or 5×10^4 cells in a 6-well plate and cultured in an incubator in DMEM (Dulbecco's Modified Eagle Media, Gibco BRL) for 24 hours at 37° C. under 5% CO2 conditions. […] After adding 1 ml of each dilution to each well containing 1 ml of the medium the cells were incubated for a certain period of time. After the culture was completed, the medium was removed, the cells were disrupted with SDS sample buffer. Each protein was separated by SDS-PAGE gel electrophoresis and transferred to a polyvinylidene fluoride (PVDF) membrane, and then non-specific binding was eliminated using a blocking buffer.
# [3] = system: p21 (cyclin-dependent kinase inhibitor 1a, Cdkn1a); conditions: HFDPCs, Western blot, compared to the control group
# Method: Specifically, human follicular dermal papilla cells (HFDPCs) were uniformly plated with western blot experimental method at the number of 1×10^5 cells in a 6-well plate and cultured in an incubator in DMEM (Dulbecco's Modified Eagle Media, Gibco BRL) for 24 hours at 37° C. under 5% CO2 conditions. The peptides of SEQ ID NO: 5 and SEQ ID NO: 10 of the present invention were dissolved in water at a concentration of 10 mM to obtain a concentrate, which was diluted with a medium to an optimal concentration of 10 or 40 μM, respectively. Thereafter, 1 ml of each dilution solution was added in each well containing 1 ml of medium, and incubated for 48 hours. After the culture was completed, the medium was removed and the cells were disrupted with SDS sample buffer, followed by separating each protein on SDS-PAGE gel electrophoresis, transferring to a polyvinylidene fluoride (PVDF) membrane, and then removing non-specific binding using a blocking buffer.
# In order to analyze whether p21 may be inhibited by treatment with peptides of SEQ ID NO: 5 and SEQ ID NO: 10, Western blot for an expression of p21 protein was performed.
# After transferring to a PVDF membrane (polyvinylidene fluoride), non-specific binding was eliminated using a blocking buffer.
# human hair follicles = conditions: SEQ ID NO: 5 100 μM, SEQ ID NO: 10 16.6 μM; 7 or 10 days culture; compared to IGF-1 (10 ng/ml) or Minoxidil (10 μM) positive control
# Method: After separating the surrounding tissues, the hair follicles isolated from the human scalp tissues were stored in Earle's balanced salts solution (EBSS; SigmaAldrich). The hair follicles in anagen phase were carefully separated under a microscope and then used in the experiment. The isolated hair follicles were cultured in Williams medium E (Gibco, Grand Island, N.Y., USA) at 37° C., 5% CO2 and 95% air with an addition of 2 mM L-glutamine (Gibco, NY, USA), 10 μg/ml insulin (SigmaAldrich), 10 ng/ml hydrocortisone (SigmaAldrich), 100 Unit/ml penicillin and 100 μg/ml streptomycin. […] At this time, as a positive control group, Minoxidil (10 μM) or IGF-1 (10 ng/ml) was treated.
# [4] = system: Wnt/β-catenin signaling pathway inhibited by DKK-1; experiment: Inhibition of DKK-1 activity: reactivation of Wnt/β-catenin signaling inhibited by recombinant DKK-1 (Western blot, HFDPCs); conditions: for recovery (increase) of expression level of non-phospho (active) β-catenin: peptide treated simultaneously with recombinant DKK-1
# Method: Specifically, human follicular dermal papilla cells (HFDPCs) were uniformly plated at the number of 5×10^4 cells in a 12-well plate and cultured in an incubator in DMEM (Dulbecco's Modified Eagle Media, Gibco BRL) for 24 hours at 37° C. under 5% CO2 conditions. After culturing, each well was treated with the recombinant protein DKK-1 to inhibit the Wnt/β-catenin signaling pathway, and further treated with the peptides of SEQ ID NO: 5 and SEQ ID NO: 10 of the present invention at appropriate concentrations, followed by culturing for a certain period of time.
# After the culture was completed, the medium was removed, the cells were disrupted with SDS sample buffer. Each protein was separated by SDS-PAGE gel electrophoresis and transferred to a PVDF membrane (polyvinylidene fluoride), and then non-specific binding was eliminated using a blocking buffer.
# LRP5 = LRP5 (human, UniProt O75197 32-1615); experiment: cell-based or functional assay
# LRP6 = LRP6 (human, UniProt O75581 20-1613); experiment: cell-based or functional assay
# LRP6, sequence (O75581 20-1613): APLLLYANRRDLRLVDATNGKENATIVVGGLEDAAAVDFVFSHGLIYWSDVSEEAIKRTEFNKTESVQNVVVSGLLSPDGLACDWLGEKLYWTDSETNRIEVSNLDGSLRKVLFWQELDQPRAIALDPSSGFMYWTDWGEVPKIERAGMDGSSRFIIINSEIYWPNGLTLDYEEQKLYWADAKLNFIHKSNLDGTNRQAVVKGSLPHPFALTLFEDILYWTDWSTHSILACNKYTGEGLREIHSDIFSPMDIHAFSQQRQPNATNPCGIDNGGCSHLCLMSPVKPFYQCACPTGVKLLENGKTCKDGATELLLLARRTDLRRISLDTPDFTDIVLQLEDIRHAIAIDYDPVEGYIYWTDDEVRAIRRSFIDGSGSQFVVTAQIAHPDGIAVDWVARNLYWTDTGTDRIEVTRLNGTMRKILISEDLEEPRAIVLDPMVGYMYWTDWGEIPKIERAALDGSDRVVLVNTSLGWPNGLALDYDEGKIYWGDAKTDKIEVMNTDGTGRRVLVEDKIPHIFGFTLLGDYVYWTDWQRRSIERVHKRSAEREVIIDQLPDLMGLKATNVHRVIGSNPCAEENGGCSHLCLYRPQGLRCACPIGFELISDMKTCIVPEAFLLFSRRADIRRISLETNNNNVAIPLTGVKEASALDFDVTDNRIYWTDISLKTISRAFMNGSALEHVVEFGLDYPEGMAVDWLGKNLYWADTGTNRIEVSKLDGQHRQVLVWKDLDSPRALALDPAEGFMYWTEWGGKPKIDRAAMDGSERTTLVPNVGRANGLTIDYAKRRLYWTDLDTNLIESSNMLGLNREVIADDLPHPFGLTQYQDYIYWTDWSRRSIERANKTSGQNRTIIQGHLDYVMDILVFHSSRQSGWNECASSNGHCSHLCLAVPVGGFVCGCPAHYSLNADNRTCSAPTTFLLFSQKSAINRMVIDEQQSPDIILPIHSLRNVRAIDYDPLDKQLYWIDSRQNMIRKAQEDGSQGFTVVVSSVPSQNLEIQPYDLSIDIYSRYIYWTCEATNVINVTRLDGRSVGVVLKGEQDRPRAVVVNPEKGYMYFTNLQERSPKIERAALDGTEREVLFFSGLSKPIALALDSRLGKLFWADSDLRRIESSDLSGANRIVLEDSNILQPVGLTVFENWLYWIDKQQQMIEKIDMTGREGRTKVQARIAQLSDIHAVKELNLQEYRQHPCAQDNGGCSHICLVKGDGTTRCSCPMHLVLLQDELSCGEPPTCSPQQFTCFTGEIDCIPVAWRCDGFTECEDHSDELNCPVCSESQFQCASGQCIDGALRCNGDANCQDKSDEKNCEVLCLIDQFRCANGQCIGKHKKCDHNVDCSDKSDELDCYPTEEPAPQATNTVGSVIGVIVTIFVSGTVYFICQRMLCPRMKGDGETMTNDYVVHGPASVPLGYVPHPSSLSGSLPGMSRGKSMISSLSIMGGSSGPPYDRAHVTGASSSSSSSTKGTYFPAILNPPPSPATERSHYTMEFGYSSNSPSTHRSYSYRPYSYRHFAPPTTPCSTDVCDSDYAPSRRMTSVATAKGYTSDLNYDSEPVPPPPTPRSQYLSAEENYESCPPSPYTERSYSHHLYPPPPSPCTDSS
# LRP5, sequence (O75197 32-1615): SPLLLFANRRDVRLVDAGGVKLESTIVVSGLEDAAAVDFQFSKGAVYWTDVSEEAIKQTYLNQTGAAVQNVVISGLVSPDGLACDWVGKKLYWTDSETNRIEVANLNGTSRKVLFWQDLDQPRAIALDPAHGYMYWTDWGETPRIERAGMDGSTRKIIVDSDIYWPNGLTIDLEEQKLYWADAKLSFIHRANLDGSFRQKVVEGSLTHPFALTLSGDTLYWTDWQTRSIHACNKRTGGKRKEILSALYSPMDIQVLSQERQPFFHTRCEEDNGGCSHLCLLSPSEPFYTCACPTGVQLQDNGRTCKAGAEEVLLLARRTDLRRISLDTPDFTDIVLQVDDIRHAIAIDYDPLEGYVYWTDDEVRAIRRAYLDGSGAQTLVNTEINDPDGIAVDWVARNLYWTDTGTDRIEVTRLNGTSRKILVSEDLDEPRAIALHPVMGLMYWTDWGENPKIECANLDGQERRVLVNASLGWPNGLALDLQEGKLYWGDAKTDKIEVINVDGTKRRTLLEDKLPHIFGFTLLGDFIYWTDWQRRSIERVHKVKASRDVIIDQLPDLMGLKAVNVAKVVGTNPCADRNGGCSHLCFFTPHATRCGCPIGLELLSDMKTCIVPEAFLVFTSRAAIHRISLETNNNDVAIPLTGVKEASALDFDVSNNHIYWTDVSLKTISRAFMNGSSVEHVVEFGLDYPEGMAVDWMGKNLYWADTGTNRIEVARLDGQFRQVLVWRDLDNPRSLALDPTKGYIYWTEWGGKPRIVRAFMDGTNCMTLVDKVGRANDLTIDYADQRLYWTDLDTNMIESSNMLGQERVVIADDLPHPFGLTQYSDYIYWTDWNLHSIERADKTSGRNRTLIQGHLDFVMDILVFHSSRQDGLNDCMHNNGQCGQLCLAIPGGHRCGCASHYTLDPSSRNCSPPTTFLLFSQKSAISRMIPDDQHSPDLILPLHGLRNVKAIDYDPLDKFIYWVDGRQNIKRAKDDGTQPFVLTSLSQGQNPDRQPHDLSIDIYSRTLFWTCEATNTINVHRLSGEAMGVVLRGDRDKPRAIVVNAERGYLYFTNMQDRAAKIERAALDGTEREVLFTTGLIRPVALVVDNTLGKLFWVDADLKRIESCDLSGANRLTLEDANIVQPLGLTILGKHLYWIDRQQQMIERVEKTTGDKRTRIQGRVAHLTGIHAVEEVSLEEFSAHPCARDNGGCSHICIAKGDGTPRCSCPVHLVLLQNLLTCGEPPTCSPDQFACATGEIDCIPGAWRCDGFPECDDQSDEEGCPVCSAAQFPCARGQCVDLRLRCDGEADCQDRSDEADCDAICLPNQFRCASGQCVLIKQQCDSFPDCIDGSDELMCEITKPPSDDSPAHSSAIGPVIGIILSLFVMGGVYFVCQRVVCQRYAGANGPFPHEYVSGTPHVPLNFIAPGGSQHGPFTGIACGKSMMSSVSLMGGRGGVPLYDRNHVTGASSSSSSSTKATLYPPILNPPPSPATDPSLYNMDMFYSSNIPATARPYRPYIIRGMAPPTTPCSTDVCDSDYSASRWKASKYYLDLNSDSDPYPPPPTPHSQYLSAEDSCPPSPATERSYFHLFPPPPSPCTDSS
Molecule,"expression level of non-phospho (active) β-catenin in HFDPCs treated with recombinant DKK-1 (western blot), recovery (LRP5)","expression level of non-phospho (active) β-catenin in HFDPCs treated with recombinant DKK-1 (western blot), recovery (LRP6)",expression of FGF10 protein [1],expression of IGF-I protein [1],expression of VEGF protein [1],expression of FGF1 gene (FGF1 and FGF7),expression of FGF7 gene (FGF1 and FGF7),gene expression of ALP (MMP-2 and ALP),gene expression of MMP-2 (MMP-2 and ALP),expression of p-GSK3β protein [2],expression of β-catenin protein [2],"expression of active β-catenin protein, concentration screening [2]",p21 protein expression [3],hair shaft growth (length of hair shaft) (human hair follicles),recovery (increase) of expression level of non-phospho (active) β-catenin [4],also measured
arginine-isoleucine-proline [SEQ ID NO: 10],,,increased,increased,increased,increased,increased,increased,increased,significantly increased,significantly increased,increased,significantly reduced,superior hair shaft growth,~31%,
recombinant protein DKK-1 (Dickkopf-1) (from UniProt O94907 32-266) (ligand),,,,,,,,,,,,,,,,"expression level of non-phospho(active) β-catenin in HFDPCs (western blot), decrease against untreated control (LRP5): 24%; expression level of non-phospho(active) β-catenin in HFDPCs (western blot), decrease against untreated control (LRP6): 24%"
serine-cysteine-arginine-isoleucine-glutamine [SEQ ID NO: 5],,,increased,increased,increased,increased,increased,increased,increased,significantly increased,significantly increased,increased,significantly reduced,superior hair shaft growth,about 10%,
"DKK-1: recombinant protein, potent antagonist of the Wnt/β-catenin signaling pathway, ligand of LRP5/6 (protein) TLNSVLNSNAIKNLPPPLGGAAGHPGSAVSAAPGILYPGGNKYQTIDNYQPYPCAEDEECGTDEYCASPTRGGDAGVQICLACRKRRKRCMRHAMCCPGNYCKNGICVSSDQNHFRGEIEETITESFGNDHSTLDGYSRRTTLSSKMYHTKGQEGSVCLRSSDCASGLCCARHFWSKICKPVLKEGQVCTKHRRKGSHGLEIFQRCYCGEGLSCRIQKDHHQASNSSRLHTCQRH",,,,,,,,,,,,,,,,decrease of expression level of non-phospho(active) β-catenin ([4]; control group treated with recombinant protein DKK-1): about 24%

# More lines, main results first:
"expression level of non-phospho (active) β-catenin in HFDPCs treated with recombinant DKK-1 (western blot), recovery (LRP5)","expression level of non-phospho (active) β-catenin in HFDPCs treated with recombinant DKK-1 (western blot), recovery (LRP6)",Molecule,expression of FGF10 protein [1],expression of IGF-I protein [1],expression of VEGF protein [1],expression of FGF1 gene (FGF1 and FGF7),expression of FGF7 gene (FGF1 and FGF7),gene expression of ALP (MMP-2 and ALP),gene expression of MMP-2 (MMP-2 and ALP),expression of p-GSK3β protein [2],expression of β-catenin protein [2],"expression of active β-catenin protein, concentration screening [2]",p21 protein expression [3],hair shaft growth (length of hair shaft) (human hair follicles),recovery (increase) of expression level of non-phospho (active) β-catenin [4],also measured
~31%,~31%,"RIP [peptide of SEQ ID NO: 10 (arginine-isoleucine-proline, RIP)]",,,,,,,,,,,,,,
~10%,~10%,"SCRIQ [peptide of SEQ ID NO: 5 (serine-cysteine-arginine-isoleucine-glutamine, SCRIQ)]",,,,,,,,,,,,,,
